# Test system: C. difficile culture positive isolates
# Test: Agar dilution MIC testing of anaerobes (moxifloxicin susceptibility)
# Type: cell-based, Clostridium difficile
# Settings: for Susceptibility to Moxifloxicin, I = 4 (number of specimens): I = intermediate; for Susceptibility to Moxifloxicin, I = 4 (number of specimens) / Susceptibility to Moxifloxicin, R > 8 (number of specimens) / Susceptibility to Moxifloxicin, S ≦ 2 (number of specimens): agar dilution; for Susceptibility to Moxifloxicin, R > 8 (number of specimens): R = resistant; for Susceptibility to Moxifloxicin, S ≦ 2 (number of specimens): S = susceptible
# Description: Moxifloxicin susceptibility testing by agar dilution was performed on all C. difficile culture positive isolates. Growth from subculture plates was suspended in pre-reduced Schaedler's broth to McFarland 0.5 turbidity. A Steers replicator seed block was used to inoculate the moxifloxicin plate from lowest to highest dilution. The inoculated media was incubated under anaerobic conditions for 48 hours before endpoint determination was read. The testing was performed and interpreted as defined in CLSI document M11-A7.
# [1] = LIGHTCYCLER PCR bp deletions demonstrated in tcdC
# [2] = LIGHTCYCLER PCR no deletions demonstrated
smiles,measurement,setting,value
COc1c(N2C[C@@H]3CCCN[C@@H]3C2)c(F)cc2c(=O)c(C(=O)O)cn(C3CC3)c12 [Moxifloxicin],specimens with tcdC gene deletions showing resistance to moxifloxicin,13 specimens with the tcdC gene deletions,46%
same,"Susceptibility to Moxifloxicin, I = 4 (number of specimens)",[1],0
same,"Susceptibility to Moxifloxicin, R > 8 (number of specimens)",[1],6
same,"Susceptibility to Moxifloxicin, S ≦ 2 (number of specimens)",[1],7
same,"Susceptibility to Moxifloxicin, I = 4 (number of specimens)",[2],2
same,"Susceptibility to Moxifloxicin, R > 8 (number of specimens)",[2],7
same,"Susceptibility to Moxifloxicin, S ≦ 2 (number of specimens)",[2],20
same,"Susceptibility to Moxifloxicin, I = 4 (number of isolates)","Total, all 49 C. difficile culture positive isolates, intermediate at 4 μg/mL",2
same,"Susceptibility to Moxifloxicin, I = 4 (number of isolates)","Total, all 49 C. difficile culture positive isolates, intermediate at 4 μg/mL, listed as moxifloxicin",two
same,"Susceptibility to Moxifloxicin, R > 8 (number of isolates)","Total, all 49 C. difficile culture positive isolates, resistant",13
same,"Susceptibility to Moxifloxicin, S ≦ 2 (number of isolates)","Total, all 49 C. difficile culture positive isolates, susceptible at ≦2 μg/mL",32
same,"Susceptibility to Moxifloxicin, S ≦ 2 (number of isolates)","Total, all 49 C. difficile culture positive isolates, susceptible at ≦2 μg/mL, listed as moxifloxicin",Thirty-two
same,culture positive isolates intermediate to moxifloxicin,"intermediate at 4 μg/mL, 49 C. difficile culture positive isolates",4%
same,culture positive isolates resistant to moxifloxicin,"resistant at ≧8 μg/mL, 49 C. difficile culture positive isolates",26%
same,culture positive isolates susceptible to moxifloxicin,"susceptible at ≦2 μg/mL, 49 C. difficile culture positive isolates",65%

# Reference: patent US8362227B2, “Detection of clostridium difficile” (Mayo Foundation for Medical Education and Research, priority 2008, dated 2013)
